Assay results taken from patent US8927577B2, “Quinolinyl glucagon receptor modulators” (Pfizer Inc., priority 2011, dated 2015).

Tests used:
[1] = biological target: T1, human glucagon receptor (Homo sapiens (Human), UniProt P47871); experiment: Glucagon cAMP Assay; type: cell-based; conditions: CHOK1 cells stably transfected with the human glucagon receptor; 100 pM glucagon challenge; Kb from IC50 by modified Cheng-Prusoff equation
Description: The Cisbio cAMP detection assay is used to determine the ability of punitive glucagon antagonist to block glucagon induced cAMP production. Potential glucagon antagonists are re-suspended and diluted in 100% DMSO. Prior to use in the Glucagon cAMP assay 100×DMSO compound stocks are diluted 20× with DMEM-F12 media (Invitogen) containing either 0.1% or 4% BSA. 2 uls of 5× compound stocks are spotted into the appropriate wells of low binding white solid bottom 384 well plates (Corning). 2 uls of 5% DMSO or known glucagon antagonist are added to each plate to define the assay window. CHOK1 cells stably transfected with the human glucagon receptor are removed from culture flasks with cell dissociation buffer. Cell pellets are re-suspended, at a concentration of 8.3e^5 cells/ml in DMEM-F12 with or without 4% BSA and 200 uM IBMX. 6 uls of cell suspensions are added to the assay plates. Plates are incubated for 20 min at room temperature prior to the addition of a 100 pM challenge dose of glucagon. On a separate plate glucagon dose response curves are run to determine the EC50 of glucagon. After a 30 min room temperature incubation the reaction is terminated by the addition of lysis buffer containing the cAMP detection reagents. Plates are incubated for an additional 60 min at room temperature prior to being read on the Perkin Elmer fluorescent plate reader. Raw is converted to nM of cAMP produced based on a cAMP standard curve. Converted data is then analyzed using the Pfizer data analysis program. IC50 values are determined from the generated sigmoidal dose response curves. Kb values are the calculated using a modified Cheng-Prusoff equation.

[2] = biological target: T1, human glucagon receptor; experiment: Human Glucagon SPA Assay; conditions: membrane from chem-1 cells stably transfected with the human glucagon receptor; 125 pM [125I]Glucagon-Cex; Ki by Cheng-Prusoff equation; read-out: Binding Ki
Description: The Glucagon SPA assay is used to determine the ability of test compounds to block the binding of glucagon-cex to the glucagon receptor. Test compounds are re-suspended and serially diluted in 100% DMSO. 1 ul of test compound at the desired concentrations is spotted into the appropriate wells of 96 well low binding white clear bottom plate (Corning). 1 ul of DMSO is spotted into total binding wells. 1 ul of a known glucagon antagonist at a concentration of 20 uM is added to non specific binding wells. […] All assay ingredients with the exception of test compounds are re-suspended in the following buffer; 50 mM Hepes pH 7.4; 5 mM MgCl2; 1 mM CaCl; 5% glycerol and 0.2% BSA. Following a 6-10 hr incubation at room temperature the amount of hot ligand bound to the cell membranes is determined by reading the plates on a Wallac Trilux radioactive emission detector. Data is analyzed using Pfizer's Data analysis program. IC50 values are then determined from the generated sigmoidal dose response curves. Ki values are calculated using Cheng-Prusoff equation.

T1 sequence (P47871 26-477): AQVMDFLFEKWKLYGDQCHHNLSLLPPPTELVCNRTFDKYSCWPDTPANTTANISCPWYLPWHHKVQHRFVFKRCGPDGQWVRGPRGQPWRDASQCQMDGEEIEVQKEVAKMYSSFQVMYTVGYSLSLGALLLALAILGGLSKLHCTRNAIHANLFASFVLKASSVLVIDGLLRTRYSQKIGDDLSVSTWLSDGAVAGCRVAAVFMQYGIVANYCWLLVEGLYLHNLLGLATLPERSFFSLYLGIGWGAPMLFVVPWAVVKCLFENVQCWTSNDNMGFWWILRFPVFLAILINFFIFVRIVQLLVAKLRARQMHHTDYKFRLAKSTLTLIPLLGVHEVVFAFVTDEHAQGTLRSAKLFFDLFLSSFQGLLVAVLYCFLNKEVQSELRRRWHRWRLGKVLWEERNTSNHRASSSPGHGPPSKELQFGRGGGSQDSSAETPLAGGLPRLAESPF

SMILES	Kb [1]	Ki [2]
Cc1cc(NC(CC(C)C)c2ccc(C(=O)NCCC(=O)O)cc2)nc2cc(F)ccc12 (racemic) [Example 12, (+/−)-3-{4-[1-(7-fluoro-4-methyl-quinolin-2-ylamino)-3-methyl-butyl]-benzoylamino}-propionic acid]	310 nM	242 nM
Cc1cc2ccccc2nc1NC(CC(C)C)c1ccc(C(=O)NCCC(=O)O)cc1 (racemic) [Example 11, (+/−)-3-{4-[3-methyl-1-(3-methyl-quinolin-2-ylamino)-butyl]-benzoylamino}-propionic acid]	91 nM	101 nM
CC(C)CC(Nc1ccc2ccc(C(F)(F)F)cc2n1)c1ccc(C(=O)NCCC(=O)O)cc1 (racemic) [Example 15, (+/−)3-(4-(3-methyl-1-(7-(trifluoromethyl)quinolin-2-ylamino)butyl)benzamido)propanoic acid]	1100 nM	479 nM
CCC[C@H](Nc1nc2ccccc2cc1C)c1ccc(C(=O)NCCC(=O)O)cc1 [Example 2, (−)-3-(4-(1-((3-Methylquinolin-2-yl)amino)butyl)benzamido)propanoic acid]	520 nM	280 nM
CCC[C@@H](Nc1nc2ccccc2cc1C)c1ccc(C(=O)NCCC(=O)O)cc1 [Example 1, (+)-3-(4-(1-((3-Methylquinolin-2-yl)amino)butyl)benzamido)propanoic acid]	110 nM	173 nM

Continued, values first:

Kb [1]	Ki [2]	SMILES
63 nM	50 nM	CC1(C)CC(C(Nc2cnc3ccc(F)cc3c2)c2ccc(C(=O)NCCC(=O)O)cc2)C1 (racemic) [Example 23, (+/−)3-(4-((3,3-dimethylcyclobutyl)(6-fluoroquinolin-3-ylamino)methyl)benzamido)propanoic acid]
100 nM	109 nM	Cc1c(NC(CC(C)C)c2ccc(C(=O)NCCC(=O)O)cc2)cnc2ccccc12 (stereo not shown) [Example 18, (+\−)-3-(4-(3-methyl-1-(4-methylquinolin-3-ylamino)butyl)benzamido)propanoic acid]
64 nM	39 nM	Cc1cc2cc(F)ccc2nc1NC(c1ccc(C(=O)NCCC(=O)O)cc1)C1CC(C)(C)C1 (racemic) [Example 20, (+/−)-3-{4-[(3,3-dimethyl-cyclobutyl)-(6-fluoro-3-methyl-quinolin-2-ylamino)-methyl]-benzoylamino}-propionic acid]
